Assay results taken from patent publication US20130244879A1, “USE OF LIPO-CHITOOLIGOSACCHARIDES TO INITIATE EARLY FLOWERING AND FRUIT DEVELOPMENT IN PLANTS AND RELATED METHODS AND COMPOSITIONS” (NOVOZYMES BIOLOGICALS HOLDING A/S, priority 2003, published 2013).

How the values were obtained:
hot pepper = experiment: Experiment 17: effect of LCO on hot pepper flowering and fruiting; format: in vivo; settings: for increased early flowers over control: at 5 weeks; for increased number of early fruits over control: in 5 weeks
Experimental: 30-day old seedlings were transplanted into 5″ pots and 20 days later (20 DAT) plants received the first LCO spray at 2 ml/plant (50 ng/plant). The 2nd spray was conducted 3 weeks (41 DAT) after the first. Data was collected 5 weeks (55 DAT) after the first LCO application. […]

sweet corn = experiment: Experiment 8: foliar application of LCO on sweet corn; format: in vivo
Text: Fertilizer (36-12-18) was applied to the corn field at 500 kg/ha before seeding. A machine planter was employed to sow sweet corn grain. Plot size was 4×4.5=18 M^2, and 6 rows/plot. To protect corn ears from raccoons and other animal damage, sweet corn plants were protected with an electric fence around the plots after silking. LCO was applied once 40 days after sowing or/and twice, 40 days after sowing and 58 days after sowing at a rate of 200 L/ha for the first application and 300 L/ha for the second application. Corn was harvested 80 days after sowing, from the two middle rows and corn ears reaching 12 cm or longer were counted as marketable.

Marigolds = experiment: Experiment 12: LCO application on marigolds; format: in vivo, Marigold; settings: best treatments
Experimental: Marigolds were planted in 32-cell flat and LCO was applied foliarly to plants 4 weeks after sowing (4 flats/treatment, 1 ml/plant applied containing various levels of LCO). Data collection started from the first flower appearing.

pepper (cv. Camelot) = experiment: Experiment 7: foliar application of LCO on pepper; format: in vivo
Experimental: 13 pepper seedlings (cv. Camelot, 6-leaf stage) were transplanted in 2 rows per plot (3.5×2.5M^2). The rows were covered with 65 cm width black plastic mulch one week before transplanting. Fertilizer (10-52-10) solution of 250 ppm was applied into the planting hole through the mulch when transplanting (approx. 250 ml per plant). The drip irrigation system was set to twice a week and 4 hours each time, depending on the soil moisture. Plants were sprayed with LCO 14 days after transplanting (5 ml/plant) and 27 days after transplanting (50 ml/plant).

Impatiens = experiment: Experiment 5: foliar application of LCO to bedding plants (Impatiens); format: in vivo
Text: This is a growth room study. Seeds of garden plant species were selected on the basis of seed-purchase popularity (Norseco, Montreal), grown in trays of Pro-Mix (NB. trademarked name) Seeding Medium, and at some size were transplanted into trays of 36 and 32 wells containing the same medium. Growth proceeded under lights in the growth room. Some 2 weeks before expected flowering, 16 young plants were sprayed with each of various levels of LCO leaving control plants untreated. The results are presented in Table 5A on bud formation and where possible opened flowers.

Tomato = experiment: Experiment 16: LCO application on fruit number and weight at end of season; format: in vivo; settings: LCO applied once at 50 ng, 20-40 days after transplantation
Text: Tomato seedlings (6 leaf-stage) were transplanted. The plants were watered on the day they were transplanted and whenever the soil was very dry during the season. Fertilizer (20-20-20) was applied at 250 kg/ha to the tomato field before transplantation. All tomato plants were supported with sticks when they were heavily loaded with fruit. Fruit yield was finally cumulated at the end of the season 115 days after transplant.

soybean (cv. Nortman) = experiment: Experiment 18: LCO foliar application on legume (soybean); format: in vivo
Experimental: A short heat-unit variety of soybean (cv. Nortman, HU 2425) was planted at density of plants on the field of approx. 300 plants per plot (500,000 plants/ha). The soybean plants were first treated with LCO at their blooming stage 24 days after planting. The treatment amounts of LCO (detailed above) were diluted with distilled water to give a 2-litre solution sprayed over 4 plots of the treatment. The second application was sprayed at the podding stage 49 days after planting. As before, the LCO was diluted with distilled water to 2-litre solution per 4 plots of the treatment. The plants receiving a single application were sprayed with LCO for the first time, whereas the plants receiving a double application were sprayed for the second time. A CO2 pressure sprayer was employed for this trial. The amount of fluid dispensed by the sprayer was controlled by the nozzle size. It was calibrated with water prior to spraying with LCO. Biomass was examined 58 days after planting by digging out by hand 5 plants per plot. The final yield was obtained by harvesting by combine the intact area (2-meter long to the end) 101 days after planting. The data were analyzed with the SAS program.

Lipo-chitooligosaccharides [LCO]
increased early flowers over control (hot pepper; double applications): ≤ 40%
increased number of early fruits over control (hot pepper; double applications): ≤ 284%
increased early flowers over control (hot pepper; single application): up to 5%
increased number of early fruits over control (hot pepper; single application): up to 159%
Average Length (cm)/ear (sweet corn; 10^−7M once): 13.12 c cm
Ear No/plant (sweet corn; 10^−7M once): 0.934
Ear Weight (kg)/ha (sweet corn; 10^−7M once): 4383.3 kg/ha
Ear/ha (sweet corn; 10^−7M once): 65416.7 ab /ha
Marketable ears/ha (sweet corn; 10^−7M once): 25000.0 /ha
Average Length (cm)/ear (sweet corn; 10^−7M twice): 13.81 ab cm
Ear No/plant (sweet corn; 10^−7M twice): 0.935
Ear Weight (kg)/ha (sweet corn; 10^−7M twice): 5000.0 kg/ha
Ear/ha (sweet corn; 10^−7M twice): 70833.3 a /ha
Marketable ears/ha (sweet corn; 10^−7M twice): 30416.7 /ha
Average Length (cm)/ear (sweet corn; 10^−8M once): 13.24 bc cm
Ear No/plant (sweet corn; 10^−8M once): 0.905
Ear Weight (kg)/ha (sweet corn; 10^−8M once): 4800.0 kg/ha
Ear/ha (sweet corn; 10^−8M once): 67083.3 ab /ha
Marketable ears/ha (sweet corn; 10^−8M once): 26250.0 /ha
Average Length (cm)/ear (sweet corn; 10^−8M twice): 13.64 abc cm
Ear No/plant (sweet corn; 10^−8M twice): 0.856
Ear Weight (kg)/ha (sweet corn; 10^−8M twice): 5150.0 kg/ha
Ear/ha (sweet corn; 10^−8M twice): 62083.3 ab /ha
Marketable ears/ha (sweet corn; 10^−8M twice): 30000.0 /ha
Average Length (cm)/ear (sweet corn; 10^−9M once): 13.68 abc cm
Ear No/plant (sweet corn; 10^−9M once): 0.928
Ear Weight (kg)/ha (sweet corn; 10^−9M once): 4266.7 kg/ha
Ear/ha (sweet corn; 10^−9M once): 68333.3 a /ha
Marketable ears/ha (sweet corn; 10^−9M once): 29166.7 /ha
Average Length (cm)/ear (sweet corn; 10^−9M twice): 13.43 bc cm
Ear No/plant (sweet corn; 10^−9M twice): 0.886
Ear Weight (kg)/ha (sweet corn; 10^−9M twice): 4033.3 kg/ha
Ear/ha (sweet corn; 10^−9M twice): 56666.7 bc /ha
Marketable ears/ha (sweet corn; 10^−9M twice): 25000.0 /ha
total number of sweet corn ears (sweet corn; foliar application in the range of 10^−8-10^−7M): significantly increased
advanced flowering (Marigolds): 2 days
increase in number of flowers at 25 days (Marigolds): 8%
First 4 wk yield, Fruit/plant (pepper (cv. Camelot); 14 ng/plant): 5.79ab Fruit/plant
First 4 wk yield, gram/plant (pepper (cv. Camelot); 14 ng/plant): 784.91ab gram/plant
First 4 wk yield, Fruit/plant (pepper (cv. Camelot); 50 ng/plant): 5.83ab Fruit/plant
First 4 wk yield, gram/plant (pepper (cv. Camelot); 50 ng/plant): 833.79ab gram/plant
First 4 wk yield, Fruit/plant (pepper (cv. Camelot); 75 ng/plant): 5.77ab Fruit/plant
First 4 wk yield, gram/plant (pepper (cv. Camelot); 75 ng/plant): 835.26ab gram/plant
First 4 wk yield, Fruit/plant (pepper (cv. Camelot); 100 ng/plant): 4.87b Fruit/plant
First 4 wk yield, gram/plant (pepper (cv. Camelot); 100 ng/plant): 694.48b gram/plant
First 4 wk yield, Fruit/plant (pepper (cv. Camelot); 141 ng/plant): 6.48a Fruit/plant
First 4 wk yield, gram/plant (pepper (cv. Camelot); 141 ng/plant): 934.83a gram/plant
First 4 wk yield, Fruit/plant (pepper (cv. Camelot); 282 ng/plant): 5.02ab Fruit/plant
First 4 wk yield, gram/plant (pepper (cv. Camelot); 282 ng/plant): 702.87b gram/plant
best dose (pepper (cv. Camelot); 5 ml of 2×10^−8M): 141 ng/plant
increase of fruit number in the early stages (pepper (cv. Camelot); foliar application): approximately 1 fruit per plant
Total Number of Impatiens buds (Impatiens; 20 ml/16 plants of 10^−7M LCO): 71
Total Number of Impatiens buds (Impatiens; 20 ml/16 plants of 10^−8M LCO): 65
Total Number of Impatiens buds (Impatiens; 20 ml/16 plants of 10^−9M LCO): 85
Total Number of Impatiens buds (Impatiens; 50 ml/16 plants of 3 × 10^−8M LCO): 66
increased fruit number (Tomato): up to 33%
Biomass (g/5-plant) (soybean (cv. Nortman); LCO 1 ng, applied once): 49.46 AB g/5-plant
Yield (kg/ha) (soybean (cv. Nortman); LCO 1 ng, applied once): 2563.96 AB kg/ha
Biomass (g/5-plant) (soybean (cv. Nortman); LCO 1 ng, applied twice): 55.10 AB g/5-plant
Yield (kg/ha) (soybean (cv. Nortman); LCO 1 ng, applied twice): 2673.54 AB kg/ha
Biomass (g/5-plant) (soybean (cv. Nortman); LCO 10 ng, applied once): 46.28 AB g/5-plant
Yield (kg/ha) (soybean (cv. Nortman); LCO 10 ng, applied once): 2515.33 B kg/ha
Biomass (g/5-plant) (soybean (cv. Nortman); LCO 10 ng, applied twice): 60.11 A g/5-plant
Yield (kg/ha) (soybean (cv. Nortman); LCO 10 ng, applied twice): 2385.75 B kg/ha
Biomass (g/5-plant) (soybean (cv. Nortman); LCO 100 ng, applied once): 46.87 AB g/5-plant
Yield (kg/ha) (soybean (cv. Nortman); LCO 100 ng, applied once): 2635.00 AB kg/ha
Biomass (g/5-plant) (soybean (cv. Nortman); LCO 100 ng, applied twice): 55.09 AB g/5-plant
Yield (kg/ha) (soybean (cv. Nortman); LCO 100 ng, applied twice): 2974.17 A kg/ha
Biomass (g/5-plant) (soybean (cv. Nortman); LCO 1000 ng, applied once): 47.99 AB g/5-plant
Yield (kg/ha) (soybean (cv. Nortman); LCO 1000 ng, applied once): 2452.71 B kg/ha
Biomass (g/5-plant) (soybean (cv. Nortman); LCO 1000 ng, applied twice): 47.81 AB g/5-plant
Yield (kg/ha) (soybean (cv. Nortman); LCO 1000 ng, applied twice): 2620.42 AB kg/ha
